Assay results reported in paper PMC9848257, “Design and synthesis of novel rigid dibenzo[b,f]azepines through ring closure technique as promising anticancer candidates against leukaemia and acting as selective topoisomerase II inhibitors and DNA intercalators” (Journal of Enzyme Inhibition and Medicinal Chemistry, 2023).

Experiments:
SK-OV-3 = test: NCI-60 one-dose screen, SK-OV-3; format: cell-based; details: Homo sapiens; SK-OV-3, ovarian cancer; single dose 10 μM; read-out: Growth inhibition %
Protocol: (§1) Anti-proliferative effects of the counterparts 4a–g and 5a–g were screened against 60 human cancer cell lines, following the Developmental Therapeutics Program protocol, National Cancer Institute[35].
(§2) The anti-tumour activity of the fourteen synthesised congeners was investigated at the NCI against a panel of 60 cancer cell lines (NCI-60 Cell One-Dose Screen). The tested dibenzo[b,f]azepine derivatives were screened at a single dose level (10 μM), Table 1.

SNB-19 = test: NCI-60 one-dose screen, SNB-19; format: cell-based; details: Homo sapiens; SNB-19, CNS cancer; single dose 10 μM; read-out: Growth inhibition %
Protocol: as §1, §2

TK-10 = test: NCI-60 one-dose screen, TK-10; format: cell-based; details: Homo sapiens; TK-10, renal cancer; single dose 10 μM; read-out: Growth inhibition %
Protocol: as §1, §2

topoisomerase II = test: Topoisomerase II inhibitory assay; format: biochemical; details: for IC50: in vitro, doxorubicin co-assayed as reference
Protocol: Therefore, following the procedure reported by Patra et al., the topoisomerase II activity was evaluated.

LOX IMVI = test: NCI-60 one-dose screen, LOX IMVI; format: cell-based; details: Homo sapiens, melanoma, single dose 10 μM, read-out: Growth inhibition %
Protocol: as §1, §2

NCI-H522 = test: NCI-60 one-dose screen, NCI-H522; format: cell-based; details: Homo sapiens; NCI-H522, non-small cell lung cancer; single dose 10 μM; read-out: Growth inhibition %
Protocol: as §1, §2

IGROV1 = test: NCI-60 one-dose screen, IGROV1; format: cell-based; details: Homo sapiens, IGROV-1; IGROV1, ovarian cancer; single dose 10 μM; read-out: Growth inhibition %
Protocol: as §1, §2

ACHN = test: NCI-60 one-dose screen, ACHN; format: cell-based; details: Homo sapiens, renal cancer, single dose 10 μM, read-out: Growth inhibition %
Protocol: as §1, §2

HCT-15 = test: NCI-60 one-dose screen, HCT-15; format: cell-based; details: Homo sapiens; HCT-15, colon cancer; single dose 10 μM; read-out: Growth inhibition %
Protocol: as §1, §2

A498 = test: NCI-60 one-dose screen, A498; format: cell-based; details: Homo sapiens; A498, renal cancer; single dose 10 μM; read-out: Growth inhibition %
Protocol: as §1, §2

KM12 = test: NCI-60 one-dose screen, KM12; format: cell-based; details: Homo sapiens; KM12, colon cancer; single dose 10 μM; read-out: Growth inhibition %
Protocol: as §1, §2

SK-MEL-2 = test: NCI-60 one-dose screen, SK-MEL-2; format: cell-based; details: Homo sapiens; SK-MEL-2, melanoma; single dose 10 μM; read-out: Growth inhibition %
Protocol: as §1, §2

MOLT-4 = test: NCI-60 one-dose screen, MOLT-4; format: cell-based; details: Homo sapiens; MOLT-4, leukaemia; single dose 10 μM; read-out: Growth inhibition %
Protocol: as §1, §2

NCI-H460 = test: NCI-60 one-dose screen, NCI-H460; format: cell-based; details: Homo sapiens; NCI-H460, non-small cell lung cancer; single dose 10 μM; read-out: Growth inhibition %
Protocol: as §1, §2

A549-ATCC = test: NCI-60 one-dose screen, A549-ATCC; format: cell-based; details: Homo sapiens, non-small cell lung cancer, single dose 10 μM, read-out: Growth inhibition %
Protocol: as §1, §2

OVCAR-8 = test: NCI-60 one-dose screen, OVCAR-8; format: cell-based; details: Homo sapiens; OVCAR-8, ovarian cancer; single dose 10 μM; read-out: Growth inhibition %
Protocol: as §1, §2

OVCAR-5 = test: NCI-60 one-dose screen, OVCAR-5; format: cell-based; details: Homo sapiens; OVCAR-5, ovarian cancer; single dose 10 μM; read-out: Growth inhibition %
Protocol: as §1, §2

HOP-92 = test: NCI-60 one-dose screen, HOP-92; format: cell-based; details: Homo sapiens; HOP-92, non-small cell lung cancer; single dose 10 μM; read-out: Growth inhibition %
Protocol: as §1, §2

SN12C = test: NCI-60 one-dose screen, SN12C; format: cell-based; details: Homo sapiens, renal cancer, single dose 10 μM, read-out: Growth inhibition %
Protocol: as §1, §2

HL-60(TB) = test: NCI-60 one-dose screen, HL-60(TB); format: cell-based; details: Homo sapiens, leukaemia, single dose 10 μM, read-out: Growth inhibition %
Protocol: as §1, §2

MCF-7 = test: NCI-60 one-dose screen, MCF-7; format: cell-based; details: Homo sapiens, MCF7; MCF-7, breast cancer; single dose 10 μM; read-out: Growth inhibition %
Protocol: as §1, §2

SF-295 = test: NCI-60 one-dose screen, SF-295; format: cell-based; details: Homo sapiens; SF-295, CNS cancer; single dose 10 μM; read-out: Growth inhibition %
Protocol: as §1, §2

MDA-MB-468 = test: NCI-60 one-dose screen, MDA-MB-468; format: cell-based; details: Homo sapiens; MDA-MB-468, breast cancer; single dose 10 μM; read-out: Growth inhibition %
Protocol: as §1, §2

RPMI-8226 = test: NCI-60 one-dose screen, RPMI-8226; format: cell-based; details: Homo sapiens; RPMI-8226, leukaemia; single dose 10 μM; read-out: Growth inhibition %
Protocol: as §1, §2

K-562 = test: NCI-60 one-dose screen, K-562; format: cell-based; details: Homo sapiens, K562; K-562, leukaemia; single dose 10 μM; read-out: Growth inhibition %
Protocol: as §1, §2

Structure (SMILES)	inhibition at 10 µM (SK-OV-3) [%]	inhibition at 10 µM (SNB-19) [%]	inhibition at 10 µM (TK-10) [%]	IC50 (topoisomerase II) [µM]	inhibition at 10 µM (LOX IMVI) [%]	inhibition at 10 µM (NCI-H522) [%]	inhibition at 10 µM (IGROV1) [%]	inhibition at 10 µM (ACHN) [%]	inhibition at 10 µM (HCT-15) [%]	inhibition at 10 µM (A498) [%]	inhibition at 10 µM (KM12) [%]	inhibition at 10 µM (SK-MEL-2) [%]	inhibition at 10 µM (MOLT-4) [%]	inhibition at 10 µM (NCI-H460) [%]	inhibition at 10 µM (A549-ATCC) [%]	inhibition at 10 µM (OVCAR-8) [%]	melting point [°C]	inhibition at 10 µM (OVCAR-5) [%]	inhibition at 10 µM (HOP-92) [%]	inhibition at 10 µM (SN12C) [%]	other results
C1=Cc2ccccc2N(c2nnc(-c3ccccc3)o2)c2ccccc21 [Compound 5a, 2-(5 h-Dibenzo[b,f]azepin-5-yl)-5-phenyl-1,3,4-oxadiazole]	< 10	33.2	16.1	15.6	< 10	< 10	< 10	16.7	< 10	< 10	< 10	< 10	16.5	< 10	< 10	< 10	209 to 211	< 10	18.3	< 10	inhibition at 10 µM (HL-60(TB)): 13.2%; inhibition at 10 µM (MCF-7): 14.4%; inhibition at 10 µM (SF-295): < 10%; inhibition at 10 µM (MDA-MB-468): 26.1%; inhibition at 10 µM (RPMI-8226): 67.7%; inhibition at 10 µM (K-562): 32.2%
Brc1ccc(-c2nnc(N3c4ccccc4C=Cc4ccccc43)o2)cc1 [Compound 5b, 2-(4-Bromophenyl)-5-(5H-dibenzo[b,f]azepin-5-yl)-1,3,4-oxadiazole]	< 10	15.6	< 10	10.2	38.8	26.3	21.6	24.8	66.5	13.4	21.4	< 10	35.6	63.5	29.8	28.6	185 to 187	< 10	33.5	24.2	inhibition at 10 µM (HL-60(TB)): 34.6%; inhibition at 10 µM (MCF-7): 30.5%; inhibition at 10 µM (SF-295): 30.4%; inhibition at 10 µM (MDA-MB-468): 17.8%; inhibition at 10 µM (RPMI-8226): 17.5%; inhibition at 10 µM (K-562): 54.5%
Clc1ccc(-c2nnc(N3c4ccccc4C=Cc4ccccc43)o2)cc1 [Compound 5c, 2-(4-Chlorophenyl)-5-(5H-dibenzo[b,f]azepin-5-yl)-1,3,4-oxadiazole]	< 10	11.2	< 10	31.8	35.7	22.2	19.2	15.5	63.5	12.9	18.5	< 10	20.4	57.3	20.3	24	174 to 176	< 10	24	21.9	inhibition at 10 µM (HL-60(TB)): 38.1%; inhibition at 10 µM (MCF-7): 35.6%; inhibition at 10 µM (SF-295): 29.6%; inhibition at 10 µM (MDA-MB-468): 16.7%; inhibition at 10 µM (RPMI-8226): 19.2%; inhibition at 10 µM (K-562): 54%
Cc1ccc(-c2nnc(N3c4ccccc4C=Cc4ccccc43)o2)cc1 [Compound 5d, 2-(5 h-Dibenzo[b,f]azepin-5-yl)-5-(p-tolyl)-1,3,4-oxadiazole]	< 10	< 10	< 10	16.8	25.6	17.1	< 10	< 10	61.1	< 10	13.1	< 10	21	58.6	12.4	11.5	239 to 241	< 10	14.3	< 10	inhibition at 10 µM (HL-60(TB)): 33.8%; inhibition at 10 µM (MCF-7): 15.7%; inhibition at 10 µM (SF-295): 22%; inhibition at 10 µM (MDA-MB-468): < 10%; inhibition at 10 µM (RPMI-8226): 52%; inhibition at 10 µM (K-562): 47.8%
C1=Cc2ccccc2N(c2nnc(-c3ccc4ccccc4c3)o2)c2ccccc21 [Compound 5f, 2-(5 h-Dibenzo[b,f]azepin-5-yl)-5-(naphthalen-2-yl)-1,3,4-oxadiazole]	< 10	< 10	20.3	9.56	18.7	24.2	29.1	10.5	57	< 10	< 10	< 10	16.3	25.1	28.2	9.31	201 to 203	< 10	20.9	15.7	Percentage of topoisomerase II inhibition (topoisomerase II; at the concentration of 100 µM (Figure 3A)): 88%; inhibition at 10 µM (HL-60(TB)): < 10%; inhibition at 10 µM (MCF-7): 24.4%; inhibition at 10 µM (SF-295): 19.9%; inhibition at 10 µM (MDA-MB-468): 11.1%; inhibition at 10 µM (RPMI-8226): 12.1%; inhibition at 10 µM (K-562): 34%
C1=Cc2ccccc2N(c2nnc(Cc3ccccc3)o2)c2ccccc21 [Compound 5g, 2-Benzyl-5-(5H-dibenzo[b,f]azepin-5-yl)-1,3,4-oxadiazole]	< 10	< 10	21.1	18.9	< 10	< 10	< 10	27.7	4.03	< 10	< 10	< 10	10.9	17.4	24.7	16.5	189 to 191	< 10	< 10	< 10	inhibition at 10 µM (HL-60(TB)): 10.6%; inhibition at 10 µM (MCF-7): < 10%; inhibition at 10 µM (SF-295): < 10%; inhibition at 10 µM (MDA-MB-468): 15.6%; inhibition at 10 µM (RPMI-8226): 27.8%; inhibition at 10 µM (K-562): 14.9%
